Reference: US20160015064A1, “COMPOUNDS, COMPOSITIONS, AND METHODS FOR MODULATING SWEET TASTE” (CHROMOCELL CORPORATION, priority 2013, published 2016)
Where a name gives a salt, the structure may show the parent alone.

Assays:
Assay type in all cases: in vivo, humans
[1] = system: perception of the sweet taste of an aqueous solution of sweetener; assay: Two-alternative forced choice sip and spit method (2AFC); settings: compound 20 ppm with positive 2AFC
Method: The effect of the test compounds on the perception of the sweet taste of an aqueous solution of sweetener in humans was evaluated using a two-alternative forced choice “sip and spit” method (2AFC).
(§1) The aqueous sweetener solutions were prepared by adding, fructose, sucrose or glucose (by weight), to water to achieve the desired concentration.
(§2) Compounds were first prepared as a 500-fold concentrated stock solution in 100% ethanol. These concentrated stocks were then added to the aqueous sweetener solutions to result in a final ethanol concentration of 0.2%. The control (positive and negative) samples were also normalized to 0.2% ethanol. This level of ethanol was not seen to contribute any perceived sweetness.
The 2AFC test used for compound evaluation was a blind and randomized test where taste panelists (n=15) evaluate a pair of sweetener solutions at a time—one sample contains aqueous sweetener solution plus compound (i.e. test) while the other contains aqueous sweetener solution at higher concentration without compound (i.e. positive control). Each test sample was compared against a positive control. For example, if the test sample contained 1× sweetener concentration with compound (e.g. 5% sucrose with compound), the positive control sample contained a 1.1× sweetener concentration (e.g. 5.5% sucrose without compound).
Panelists were instructed not to eat or drink (except water) for at least 1 h before the test. During the test, panelists were instructed to sip each sample, swirl it around their mouth and then expectorate. After tasting each sample in the pair, panelists were instructed to record the sample that is “sweeter” in taste. Panelists cleansed their palates by rinsing with water, eating a cracker and waiting for an interval of about 5 minutes. Each pair was tasted twice. All samples were tasted at ambient temperatures. Data were analyzed using binomial probabilities.
Approximate levels of sweetness enhancement in column 5 of Table 2 were calculated as follows:
Approximate levels of sweetness enhancement=Sweetener concentration of positive control surpassed by the test sample, divided by sweetener concentration for compound-containing sample (e.g. 1.15×=5.75% sucrose/5% sucrose).

[2] = system: perception of the sweet taste of an aqueous solution of sweetener; assay: Ranking sip and spit test of sweetness perception (R index); settings: 5% sucrose test sample, vs negative control
Method: The effect of the test compounds on the perception of the sweet taste of an aqueous solution of sweetener in humans was evaluated using a ranking “sip and spit” method.
as §1
Compounds were first prepared as a 500-fold concentrated stock solution in 100% ethanol. These concentrated stocks were then added to the aqueous sweetener solutions to result in a final ethanol concentration of 0.2%. The control (positive and negative) samples were also normalized to 0.2% ethanol.
In the ranking test used for compound evaluation, taste panelists (n=15), rank samples in increasing order of sweetness. One set, comprising of 6 samples, was presented to each panelists at a given time and are asked to rank them in order of increasing sweetness.
Panelists were instructed not to eat or drink (except water) for at least 1 h before the test. During the test, panelists were instructed to sip each sample, swirl it around their mouth and then expectorate. After tasting each set, panelists were instructed to rank the 6 samples within the set from least sweet to most sweet. Where rank 1—is lowest in sweetness and rank 6—is highest in sweetness. Panelists cleansed their palates by rinsing with water, eating a cracker and waiting for an interval of 10 minutes. All samples were tasted at ambient temperatures. Each sample was tasted twice.
R index analysis was utilized to determine the degree of difference between a test and control sample. It indicates the level of discrimination between two samples. […] A positive control sample was used to assess the ability of the panelists to accurately discriminate sweetness perception differences from the negative control.

[3] = system: perception of sweet taste, in an aqueous solution; assay: Inherent sweetness assessment, difference from control sip and spit method; settings: compound 10 ppm in water, no sweetener
Method: The aqueous sucrose solutions were prepared by adding, sucrose (by weight), to water to achieve the desired concentration.
as §2, with “water” for “the aqueous sweetener solutions”, “(including positive control)” for “(positive and negative)”
The intrinsic effect of test compounds on the perception of sweet taste, in an aqueous solution, in humans was evaluated using a difference from control “sip and spit” method employing a verbal category scale.
In this method, panelists (n=12) evaluate one pair of samples at a time—one sample contains water plus compound (i.e. test) while the other contains water without compound (i.e. control). Panelists were instructed to first taste the un-blinded control followed by the test sample and asked to rate the size of sweetness difference between the test and control sample, using a 6 point verbal category scale:
Verbal category scale • No difference • Slight difference • Slight/moderate difference • Moderate difference • Moderate/large difference • Very large difference
4 blinded controls comprising of one negative control (0% sucrose) and 3 positive control samples (0.5% sucrose, 1% sucrose and 2% sucrose) were also included as part of the test to evaluate the ability of panelists to rank the difference in sweetness perception between 0.5% sucrose, 1% sucrose and 2% sucrose compared to 0% sucrose control.
Panelists were instructed not to eat or drink (except water) for at least 1 h before the test. During the test, panelists were instructed to sip each sample, swirl it around their mouth and then expectorate. Panelists cleansed their palates by rinsing with water, eating a cracker and waiting for an interval of about 5 minutes. All samples were tasted at ambient temperatures.
The verbal category response for each test sample was converted into an integer numerical value, from 1 to 6 (e.g. no difference=1 and very large difference=6). Total numbers of panelist responses per integer value were plotted as a histogram. An assessment was then made, comparing mean, mode of the numerical value, and the distribution of the histogram plots, for test samples as compared to that of the positive (0.5% sucrose, 1% sucrose and 2% sucrose) and negative control (0% sucrose) sample. Inherent sweetness levels are then correlated to the positive controls as discrete bins: • Bin 1: 0% sucrose • Bin 2: >0% sucrose—<0.5% sucrose • Bin 3: 0.5% sucrose • Bin 4: >0.5% sucrose—<1% sucrose • Bin 5: 1% sucrose • Bin 6: >1% sucrose—<2% sucrose • Bin 7: 2% sucrose

[4] = compound 10 ppm, significant at R index ≧60

Row | SMILES | Fold increase in perceived sweetness ([1]; test sample 4% fructose) [X] | R Index Score [2, 4] | other results
1 | COc1ccc(C2CC(=O)c3c(O)cc(OCCCC(=O)O)cc3O2)cc1O (centres unmarked) [Compound 4, 4-((5-hydroxy-2-(3-hydroxy-4-methoxyphenyl)-4-oxochroman-7-yl)oxy)butanoic acid] | >1.1 |  | Fold increase in perceived sweetness ([1]; test sample 5% sucrose): >1.1X
2 | CCCOc1ccc(C2CC(=O)c3c(O)cc(O)cc3O2)cc1O (centres unmarked) [Compound 5, 5,7-dihydroxy-2-(3-hydroxy-4-propoxyphenyl)chroman-4-one] | >1.1 |  | 
3 | COc1ccc(C2CC(=O)c3c(O)cc(C)cc3O2)cc1O (centres unmarked) [Compound 6, 5-hydroxy-2-(3-hydroxy-4-methoxyphenyl)-7-methylchroman-4-one] |  | 82 | 
4 | O=C1CC(c2ccc(O)cc2)Oc2cccc(O)c21 (centres unmarked) [Compound 7, 5-hydroxy-2-(4-hydroxyphenyl)chroman-4-one] |  | 71 | 
5 | O=C1CC(c2ccc(O)c(O)c2)Oc2cccc(O)c21 (centres unmarked) [Compound 8, 2-(3,4-dihydroxyphenyl)-5-hydroxychroman-4-one] |  | 69 | 
6 | O=C1CC(c2cccc(O)c2)Oc2cc(O)cc(O)c21 (centres unmarked) [Compound 10, 5,7-dihydroxy-2-(3-hydroxyphenyl)chroman-4-one] |  | 65 | 
7 | O=C1CC(c2cccc(O)c2)Oc2cccc(O)c21 (centres unmarked) [Compound 12, 5-hydroxy-2-(3-hydroxyphenyl)chroman-4-one] |  |  | R Index Score ([2]; compound 2.5 ppm): 62
8 | COC(=O)c1cccc(C2CC(=O)c3c(O)cc(O)cc3O2)c1 (centres unmarked) [Compound 13, methyl 3-(5,7-dihydroxy-4-oxochroman-2-yl)benzoate] |  | 61 | 
9 | COc1ccc(C2CC(=O)c3c(O)cc(OCCCS(=O)(=O)O)cc3O2)cc1O (centres unmarked) [Compound 14, 3-((5-hydroxy-2-(3-hydroxy-4-methoxyphenyl)-4-oxochroman-7-yl)oxy)propane-1-sulfonic acid potassium salt] | >1.1 |  | 
10 | COc1ccc(C2CC(=O)c3c(O)cc(F)cc3O2)cc1O (centres unmarked) [Compound 15, 7-fluoro-5-hydroxy-2-(3-hydroxy-4-methoxyphenyl)chroman-4-one] | >1.1 |  | Correlated Inherent Sweetness Assessment [3]: 0% sucrose
11 | COc1cc(C2CC(=O)c3c(O)cccc3O2)ccc1C (centres unmarked) [Compound 16] |  |  | Fold increase in perceived sweetness ([1]; test sample 5% sucrose): >1.1X
12 | COc1ccc(C2CC(=O)c3c(Cl)cc(O)cc3O2)cc1O (centres unmarked) [Compound 17] | 1.1 |  | 
